Tests used:
Test in all cases: radiometric filter-binding kinase assay
AURKA (human) = AURKA (human) (UniProt O14965)
BRSK1 (human) = BRSK1 (human) (UniProt Q8TDC3)
BRSK2 (human) = BRSK2 (human) (UniProt Q8IWQ3)
CDK2 CCNA2 (human) = CDK2 CCNA2 (human) (UniProt P20248+P24941)
CLK2 (human) = CLK2 (human) (UniProt P49760)
CSK (human) = CSK (human) (UniProt P41240)
CSNK1D (human) = CSNK1D (human) (UniProt P48730)
EPHA4 (human) = EPHA4 (human) (UniProt P54764); conditions: compound 1.0 µM
EPHB2 (human) = EPHB2 (human) (UniProt P29323)
FGFR1 (human) = FGFR1 (human) (UniProt P11362)
FLT1 (human) = FLT1 (human) (UniProt P17948)
INSR (human) = INSR (human) (UniProt P06213)
INSRR (human) = INSRR (human) (UniProt P14616)
IRAK4 (human) = IRAK4 (human) (UniProt Q9NWZ3)
JAK2 JH1 JH2 (human) = JAK2 JH1 JH2 (human) (UniProt O60674)
MAP2K2 (human) = MAP2K2 (human) (UniProt P36507); conditions: compound 0.1 µM
MAP3K11 (human) = MAP3K11 (human) (UniProt Q16584)
MAP3K7 TAB1 (human) = MAP3K7 TAB1 (human) (UniProt Q15750+O43318)
MAPK12 (human) = MAPK12 (human) (UniProt P53778)
MAPK8 (human) = MAPK8 (human) (UniProt P45983)
MAPKAPK3 (human) = MAPKAPK3 (human) (UniProt Q16644)
MARK4 (human) = MARK4 (human) (UniProt Q96L34)
MELK (human) = MELK (human) (UniProt Q14680)
MYLK (human) = MYLK (human) (UniProt Q15746)
[1] = test system: PAK2 (human), Q13177 [T402E]
PIM1 (human) = PIM1 (human) (UniProt P11309)
PIM3 (human) = PIM3 (human) (UniProt Q86V86)
PLK1 (human) = PLK1 (human) (UniProt P53350)
RIPK2 (human) = RIPK2 (human) (UniProt O43353)
RPS6KA3 KD1 KD2 (human) = RPS6KA3 KD1 KD2 (human) (UniProt P51812); conditions: compound 0.1 µM
[2] = test system: RPS6KB1 (human), P23443 [T412E]
[3] = test system: SGK1 (human), O00141 [S422D]
SYK (human) = SYK (human) (UniProt P43405)
TBK1 (human) = TBK1 (human) (UniProt Q9UHD2)
TTK (human) = TTK (human) (UniProt P33981)

Chain of MELK (human) (Q14680 whole entry, looked up): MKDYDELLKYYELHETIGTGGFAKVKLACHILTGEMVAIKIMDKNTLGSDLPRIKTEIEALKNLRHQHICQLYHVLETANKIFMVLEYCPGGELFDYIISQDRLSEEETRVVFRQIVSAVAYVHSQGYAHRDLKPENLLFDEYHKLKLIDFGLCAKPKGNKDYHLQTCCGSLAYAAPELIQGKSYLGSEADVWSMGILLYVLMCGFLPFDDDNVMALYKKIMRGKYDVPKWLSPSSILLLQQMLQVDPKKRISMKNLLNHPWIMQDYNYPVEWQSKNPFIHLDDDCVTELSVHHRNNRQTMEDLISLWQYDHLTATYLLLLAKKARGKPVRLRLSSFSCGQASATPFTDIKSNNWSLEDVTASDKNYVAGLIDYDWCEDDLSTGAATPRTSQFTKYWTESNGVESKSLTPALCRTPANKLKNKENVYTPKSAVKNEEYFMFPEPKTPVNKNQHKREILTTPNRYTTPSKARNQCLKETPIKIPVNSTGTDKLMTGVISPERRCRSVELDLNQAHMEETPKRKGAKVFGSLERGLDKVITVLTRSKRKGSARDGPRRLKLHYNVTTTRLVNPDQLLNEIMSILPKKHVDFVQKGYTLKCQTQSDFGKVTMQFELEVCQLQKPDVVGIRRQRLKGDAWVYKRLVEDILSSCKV
Chain of PLK1 (human) (P53350 whole entry, looked up): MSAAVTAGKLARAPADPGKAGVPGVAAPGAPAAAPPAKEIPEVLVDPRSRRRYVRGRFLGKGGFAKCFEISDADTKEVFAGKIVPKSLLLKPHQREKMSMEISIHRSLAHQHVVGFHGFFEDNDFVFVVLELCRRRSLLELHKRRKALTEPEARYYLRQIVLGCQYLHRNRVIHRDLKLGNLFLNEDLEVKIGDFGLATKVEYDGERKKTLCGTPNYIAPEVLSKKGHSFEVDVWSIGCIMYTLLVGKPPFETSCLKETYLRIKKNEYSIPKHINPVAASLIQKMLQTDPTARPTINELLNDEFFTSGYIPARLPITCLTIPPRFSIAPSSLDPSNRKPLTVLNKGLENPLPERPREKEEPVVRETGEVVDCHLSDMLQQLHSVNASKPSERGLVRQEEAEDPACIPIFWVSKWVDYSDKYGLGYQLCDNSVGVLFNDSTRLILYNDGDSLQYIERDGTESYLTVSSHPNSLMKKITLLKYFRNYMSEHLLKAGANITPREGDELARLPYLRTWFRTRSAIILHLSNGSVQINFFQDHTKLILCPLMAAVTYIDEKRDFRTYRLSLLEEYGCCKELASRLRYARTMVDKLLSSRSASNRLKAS
Chain of CSNK1D (human) (P48730 whole entry, looked up): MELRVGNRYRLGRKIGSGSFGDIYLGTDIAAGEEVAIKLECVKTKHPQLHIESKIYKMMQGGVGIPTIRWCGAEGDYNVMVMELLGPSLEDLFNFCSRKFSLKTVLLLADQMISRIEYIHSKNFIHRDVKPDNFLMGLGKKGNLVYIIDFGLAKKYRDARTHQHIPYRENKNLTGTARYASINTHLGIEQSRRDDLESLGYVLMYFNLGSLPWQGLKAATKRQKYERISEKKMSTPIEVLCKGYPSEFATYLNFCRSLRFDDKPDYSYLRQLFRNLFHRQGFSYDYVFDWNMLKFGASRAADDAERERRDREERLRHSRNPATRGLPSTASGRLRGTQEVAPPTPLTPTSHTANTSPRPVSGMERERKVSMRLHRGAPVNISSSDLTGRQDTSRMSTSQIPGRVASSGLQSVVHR
Chain of PAK2 (human), Q13177 [T402E] (Q13177 whole entry T402E, looked up): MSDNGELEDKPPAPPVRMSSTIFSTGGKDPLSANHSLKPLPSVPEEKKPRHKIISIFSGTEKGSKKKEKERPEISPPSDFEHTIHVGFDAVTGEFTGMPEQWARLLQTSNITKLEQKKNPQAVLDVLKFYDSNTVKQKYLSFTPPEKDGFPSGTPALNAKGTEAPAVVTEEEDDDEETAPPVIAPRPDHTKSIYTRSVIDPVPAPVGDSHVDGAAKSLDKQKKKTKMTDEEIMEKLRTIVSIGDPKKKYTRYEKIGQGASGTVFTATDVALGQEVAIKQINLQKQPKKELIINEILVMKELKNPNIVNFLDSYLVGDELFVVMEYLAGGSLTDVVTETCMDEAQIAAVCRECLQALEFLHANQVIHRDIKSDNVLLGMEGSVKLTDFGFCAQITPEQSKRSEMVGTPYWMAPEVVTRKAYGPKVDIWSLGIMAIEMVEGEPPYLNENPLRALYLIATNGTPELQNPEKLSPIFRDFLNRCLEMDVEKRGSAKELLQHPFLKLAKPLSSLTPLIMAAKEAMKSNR
Chain of MARK4 (human) (Q96L34 whole entry, looked up): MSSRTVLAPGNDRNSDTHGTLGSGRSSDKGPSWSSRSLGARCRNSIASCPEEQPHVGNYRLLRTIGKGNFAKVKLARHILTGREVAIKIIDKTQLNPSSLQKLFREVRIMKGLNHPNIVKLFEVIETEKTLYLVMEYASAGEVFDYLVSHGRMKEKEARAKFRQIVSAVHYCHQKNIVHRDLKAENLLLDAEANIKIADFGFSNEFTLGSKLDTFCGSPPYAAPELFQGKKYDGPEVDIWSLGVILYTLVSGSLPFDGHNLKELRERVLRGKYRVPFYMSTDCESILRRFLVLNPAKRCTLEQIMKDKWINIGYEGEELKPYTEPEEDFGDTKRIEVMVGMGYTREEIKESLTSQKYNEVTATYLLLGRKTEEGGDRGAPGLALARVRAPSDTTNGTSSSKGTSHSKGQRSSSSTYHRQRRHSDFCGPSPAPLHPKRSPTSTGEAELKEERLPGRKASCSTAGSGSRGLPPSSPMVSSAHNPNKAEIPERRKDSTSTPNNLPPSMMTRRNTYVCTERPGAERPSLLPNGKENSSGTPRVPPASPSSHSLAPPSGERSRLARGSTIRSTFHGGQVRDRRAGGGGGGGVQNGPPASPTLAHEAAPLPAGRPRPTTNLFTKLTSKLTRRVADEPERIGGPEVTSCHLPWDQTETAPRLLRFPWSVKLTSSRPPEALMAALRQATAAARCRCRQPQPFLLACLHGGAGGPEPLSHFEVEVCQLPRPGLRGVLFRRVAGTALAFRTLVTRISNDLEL
Chain of AURKA (human) (O14965 whole entry, looked up): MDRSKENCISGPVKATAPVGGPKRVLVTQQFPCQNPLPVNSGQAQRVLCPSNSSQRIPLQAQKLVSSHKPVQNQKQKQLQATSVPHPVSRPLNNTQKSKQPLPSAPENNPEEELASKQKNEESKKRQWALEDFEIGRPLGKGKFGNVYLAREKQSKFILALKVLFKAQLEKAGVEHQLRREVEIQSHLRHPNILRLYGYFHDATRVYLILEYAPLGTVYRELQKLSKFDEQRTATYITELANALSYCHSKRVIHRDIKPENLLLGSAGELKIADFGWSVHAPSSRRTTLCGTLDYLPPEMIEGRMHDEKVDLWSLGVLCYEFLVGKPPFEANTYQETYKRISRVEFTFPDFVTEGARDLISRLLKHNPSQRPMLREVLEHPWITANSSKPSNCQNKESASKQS
Chain of JAK2 JH1 JH2 (human) (O60674 whole entry, looked up): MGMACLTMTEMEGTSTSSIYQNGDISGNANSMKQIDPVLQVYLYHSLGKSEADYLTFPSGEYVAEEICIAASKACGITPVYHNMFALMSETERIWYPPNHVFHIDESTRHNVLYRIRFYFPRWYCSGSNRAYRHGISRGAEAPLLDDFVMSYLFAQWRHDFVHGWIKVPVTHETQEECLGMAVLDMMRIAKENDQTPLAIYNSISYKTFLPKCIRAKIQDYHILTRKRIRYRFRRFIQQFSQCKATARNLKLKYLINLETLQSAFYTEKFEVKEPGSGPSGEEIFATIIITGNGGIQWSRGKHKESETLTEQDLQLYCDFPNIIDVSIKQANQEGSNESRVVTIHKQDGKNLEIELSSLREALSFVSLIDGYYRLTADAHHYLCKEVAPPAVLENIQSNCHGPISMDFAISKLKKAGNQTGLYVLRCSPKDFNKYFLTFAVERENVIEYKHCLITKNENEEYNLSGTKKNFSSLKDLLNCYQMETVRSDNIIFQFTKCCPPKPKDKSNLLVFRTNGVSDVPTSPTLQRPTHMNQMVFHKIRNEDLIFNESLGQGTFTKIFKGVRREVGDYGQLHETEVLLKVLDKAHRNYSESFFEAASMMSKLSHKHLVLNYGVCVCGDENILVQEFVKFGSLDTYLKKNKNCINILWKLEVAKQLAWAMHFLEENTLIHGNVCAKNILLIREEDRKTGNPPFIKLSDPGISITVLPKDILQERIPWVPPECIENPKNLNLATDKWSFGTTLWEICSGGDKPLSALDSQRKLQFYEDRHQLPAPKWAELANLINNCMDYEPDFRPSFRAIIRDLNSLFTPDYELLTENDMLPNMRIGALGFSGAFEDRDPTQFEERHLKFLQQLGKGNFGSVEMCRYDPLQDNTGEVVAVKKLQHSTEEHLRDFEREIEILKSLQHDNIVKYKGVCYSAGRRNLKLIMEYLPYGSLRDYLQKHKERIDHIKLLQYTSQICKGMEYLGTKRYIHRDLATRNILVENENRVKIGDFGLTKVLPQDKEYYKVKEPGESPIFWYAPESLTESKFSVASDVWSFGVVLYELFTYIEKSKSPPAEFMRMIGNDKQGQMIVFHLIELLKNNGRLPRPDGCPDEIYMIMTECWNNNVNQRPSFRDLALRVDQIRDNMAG

CCn1c(-c2nonc2N)nc2cncc(CNC3CCNCC3)c21
residual activity (AURKA (human); compound 0.1 µM): 91% | residual activity (AURKA (human); compound 1.0 µM): 95% | residual activity (AURKA (human); compound 10.0 µM): 103% | residual activity (BRSK1 (human); compound 0.1 µM): 91% | residual activity (BRSK1 (human); compound 1.0 µM): 81% | residual activity (BRSK1 (human); compound 10.0 µM): 41% | residual activity (BRSK2 (human); compound 0.1 µM): 96% | residual activity (BRSK2 (human); compound 1.0 µM): 89% | residual activity (BRSK2 (human); compound 10.0 µM): 41% | residual activity (CDK2 CCNA2 (human); compound 0.1 µM): 83% | residual activity (CDK2 CCNA2 (human); compound 1.0 µM): 81% | residual activity (CDK2 CCNA2 (human); compound 10.0 µM): 56% | residual activity (CLK2 (human); compound 0.1 µM): 107% | residual activity (CLK2 (human); compound 1.0 µM): 71% | residual activity (CLK2 (human); compound 10.0 µM): 22% | residual activity (CSK (human); compound 0.1 µM): 89% | residual activity (CSK (human); compound 1.0 µM): 95% | residual activity (CSK (human); compound 10.0 µM): 98% | residual activity (CSNK1D (human); compound 0.1 µM): 102% | residual activity (CSNK1D (human); compound 1.0 µM): 91% | residual activity (CSNK1D (human); compound 10.0 µM): 61% | residual activity (EPHA4 (human)): 109% | residual activity (EPHB2 (human); compound 0.1 µM): 115% | residual activity (EPHB2 (human); compound 1.0 µM): 91% | residual activity (EPHB2 (human); compound 10.0 µM): 87% | residual activity (FGFR1 (human); compound 0.1 µM): 101% | residual activity (FGFR1 (human); compound 1.0 µM): 115% | residual activity (FGFR1 (human); compound 10.0 µM): 121% | residual activity (FLT1 (human); compound 0.1 µM): 103% | residual activity (FLT1 (human); compound 1.0 µM): 105% | residual activity (FLT1 (human); compound 10.0 µM): 83% | residual activity (INSR (human); compound 0.1 µM): 99% | residual activity (INSR (human); compound 1.0 µM): 99% | residual activity (INSR (human); compound 10.0 µM): 99% | residual activity (INSRR (human); compound 0.1 µM): 71% | residual activity (INSRR (human); compound 1.0 µM): 49% | residual activity (INSRR (human); compound 10.0 µM): 21% | residual activity (IRAK4 (human); compound 0.1 µM): 99% | residual activity (IRAK4 (human); compound 1.0 µM): 86% | residual activity (IRAK4 (human); compound 10.0 µM): 87% | residual activity (JAK2 JH1 JH2 (human); compound 0.1 µM): 108% | residual activity (JAK2 JH1 JH2 (human); compound 1.0 µM): 103% | residual activity (JAK2 JH1 JH2 (human); compound 10.0 µM): 110% | residual activity (MAP2K2 (human)): 98% | residual activity (MAP3K11 (human); compound 1.0 µM): 111% | residual activity (MAP3K11 (human); compound 10.0 µM): 89% | residual activity (MAP3K7 TAB1 (human); compound 0.1 µM): 95% | residual activity (MAP3K7 TAB1 (human); compound 1.0 µM): 94% | residual activity (MAP3K7 TAB1 (human); compound 10.0 µM): 82% | residual activity (MAPK12 (human); compound 0.1 µM): 119% | residual activity (MAPK12 (human); compound 1.0 µM): 112% | residual activity (MAPK12 (human); compound 10.0 µM): 109% | residual activity (MAPK8 (human); compound 0.1 µM): 112% | residual activity (MAPK8 (human); compound 1.0 µM): 105% | residual activity (MAPK8 (human); compound 10.0 µM): 101% | residual activity (MAPKAPK3 (human); compound 0.1 µM): 98% | residual activity (MAPKAPK3 (human); compound 1.0 µM): 101% | residual activity (MAPKAPK3 (human); compound 10.0 µM): 97% | residual activity (MARK4 (human); compound 0.1 µM): 91% | residual activity (MARK4 (human); compound 1.0 µM): 103% | residual activity (MARK4 (human); compound 10.0 µM): 81% | residual activity (MELK (human); compound 0.1 µM): 71% | residual activity (MELK (human); compound 1.0 µM): 40% | residual activity (MELK (human); compound 10.0 µM): 26% | residual activity (MYLK (human); compound 0.1 µM): 104% | residual activity (MYLK (human); compound 1.0 µM): 110% | residual activity (MYLK (human); compound 10.0 µM): 70% | residual activity ([1]; compound 0.1 µM): 99% | residual activity ([1]; compound 1.0 µM): 93% | residual activity ([1]; compound 10.0 µM): 90% | residual activity (PIM1 (human); compound 0.1 µM): 94% | residual activity (PIM1 (human); compound 1.0 µM): 35% | residual activity (PIM1 (human); compound 10.0 µM): 7% | residual activity (PIM3 (human); compound 0.1 µM): 76% | residual activity (PIM3 (human); compound 1.0 µM): 36% | residual activity (PIM3 (human); compound 10.0 µM): 13% | residual activity (PLK1 (human); compound 0.1 µM): 83% | residual activity (PLK1 (human); compound 1.0 µM): 60% | residual activity (PLK1 (human); compound 10.0 µM): 41% | residual activity (RIPK2 (human); compound 0.1 µM): 86% | residual activity (RIPK2 (human); compound 1.0 µM): 77% | residual activity (RIPK2 (human); compound 10.0 µM): 77% | residual activity (RPS6KA3 KD1 KD2 (human)): 94% | residual activity ([2]; compound 0.1 µM): 16% | residual activity ([2]; compound 1.0 µM): 5% | residual activity ([2]; compound 10.0 µM): 4% | residual activity ([3]; compound 0.1 µM): 82% | residual activity ([3]; compound 1.0 µM): 55% | residual activity ([3]; compound 10.0 µM): 25% | residual activity (SYK (human); compound 0.1 µM): 106% | residual activity (SYK (human); compound 1.0 µM): 101% | residual activity (SYK (human); compound 10.0 µM): 79% | residual activity (TBK1 (human); compound 0.1 µM): 88% | residual activity (TBK1 (human); compound 1.0 µM): 93% | residual activity (TBK1 (human); compound 10.0 µM): 78% | residual activity (TTK (human); compound 0.1 µM): 83% | residual activity (TTK (human); compound 1.0 µM): 84% | residual activity (TTK (human); compound 10.0 µM): 65%

From the kinase profiling compilation of Christmann-Franck et al. (2016)
